Earlier results as cited in patent publication US8114906B2, “Essential fatty acids in the treatment and/or inhibition of depression in patients with coronary heart or artery disease” (Abbott Products GmbH, priority 2004, dated 2012).

Experiments:
[1] = test system: treatment resistant depression; details: EPA added to treatment
[2] = test system: depression in post-myocardial patients; details: one study

For `CC/C=C\C/C=C\C/C=C\C/C=C\C/C=C\CCCC(=O)OCC` [EPA, eicosapentanoic acid ethyl ester], which “symptoms of treatment resistant depression” value [1] is on record?
Its value is “symptoms remission”.

For `CN[C@H]1CC[C@@H](c2ccc(Cl)c(Cl)c2)c2ccccc21` [sertraline], which “effects in post-myocardial patients with concomitant depression” value [2] is on record?
The value was “beneficial effects”.
